Experiments:
ocular district = assay: Blood flow / anti-ischemic effect in the ocular district after PGE1 cream on the inner forearm; assay type: in vivo, patient
high myopia = conditions: intravenously administered PGE1, conclusion of the cited publication; cited from earlier work

CCCCC[C@H](O)/C=C/[C@H]1[C@H](O)CC(=O)[C@@H]1CCCCCCC(=O)O [PGE1, prostaglandin E1]
anti-ischemic effects in the ocular district versus 60 micrograms of PGE1 by intravenous infusion (ocular district; cream 20 μg per ml, patient weighing 60 kg, total dose 4 ml of cream (80 μg total of PGE1), transdermal): comparable
effect on blood flow at the ocular district level (ocular district; cream with 10-30 micrograms of PGE1 per ml, applied on the inner forearm): increased blood flow
duration of the effect of the intravenous administration (high myopia): 6-8 weeks

Source: patent US20140377337A1 (priority 2012, published 2014)
